Test results from patent US10317418B2, “Use of ghrelin or functional ghrelin receptor agonists to prevent and treat stress-sensitive psychiatric illness” (Massachusetts Institute of Technology, priority 2015, dated 2019).
Entries after “also recorded” stand apart in the source; their conditions may differ. Structures can show the parent of a compound that is named as a salt.

Experiments:
Long Evans rats [1] = assay: auditory Pavlovian fear conditioning and extinction testing, unstressed rats; format: in vivo, rat
Experimental: All experiments used adult, male Long Evans rats (300-350 g, Charles River, Raleigh, N.C. or 250-275 g, Taconic, Germantown, N.Y.), individually housed (68-72° F.; 12-h light/dark cycle, 0700 h lights on). Control animals were housed in separate cubicles from stressed animals. Water and food was given ad libitum. All procedures were approved by the Institutional Animal Care and Use Committee of the Massachusetts Institute of Technology and the Animal Care and Use Review Office of the US Army Medical Research and Materiel Command and in accordance with the US National Institutes of Health (NIH) Guide for the Care and Use of Laboratory Animals.
(§1) Some rats received systemic or intra-BLA delivery of ibutamoren mesylate (IBU). For systemic drug delivery, rats were injected with 1 ml kg^−1 intraperitoneal injection (i.p.) of either vehicle or drug. […] A concentration of 0.5 mg ml^−1, diluted in saline, was used. For experiments using intra-BLA drug delivery, ibutamoren mesylate was solubilized in artificial cerebrospinal fluid (pH=7.4) to a concentration of 0.5 μg μl^−1.
Some rats received bilateral implants of stainless steel cannulae aimed at the BLA. Rats were anesthetized with a cocktail of 10 mg kg^−1 acepromazine, 100 mg kg^−1 xylazine, and 100 mg kg^−1 ketamine (1 ml kg^−1; i.p.) and placed in a dual arm stereotaxic frame (Kopf Instruments; Tujunga, Calif.). The rats were then implanted with 23 gauge guide cannulae 1 mm above LA using the following coordinates, relative to bregma and brain surface: A/P −2.0, M/L+/−5.3, D/V −5.4. Three jeweler screws were also implanted in the skull, and dental acrylic was used to secure the implant. Dummy cannulae extending 1 mm past the tip of the guide cannulae were placed into the guide cannula after surgery and changed every other day. Rats received 0.03 mg kg^−1 of Buprenex (1 ml kg^−1; subcutaneous injection (s.c.)) for post-operative pain management. All rats recovered for a minimum of 5 days.
A subset of rats were subjected to auditory Pavlovian fear conditioning and extinction testing. All rats were transported in their home cages from the vivarium to a holding room in which no behavioral testing was conducted. This transport occurred at least one hour prior to the onset of any behavioral testing.
For catheterized rats, each rat was placed in a fear conditioning box (MedAssociates; St. Albans, Vt.) scented with Pine-Sol (1%) for 250 sec total. The rats had 3 minutes to explore the novel environment before tone (10 seconds, 85 dB)-shock (2 seconds, 0.35 mA; coterminating with the tone) pairings [20 second intertrial intervals (ITIs)] were administered. Long-term context and tone fear memory was assessed the following day. For context extinction, the rats were returned to the fear conditioning context for a total of 10 minutes. Four hours later, tone extinction was administered by placing the rats in the fear conditioning boxes with an altered context. White Plexiglas inserts were used to obscure the back and side walls and cover the grid floor. Room and box lights were turned off, a red light provided illumination (15 W), and acetic acid (1%) was used to scent the boxes. Two minutes were allowed for exploration before a continuous tone (8 minutes, 87 dB) was presented. For rats with BLA cannula implants, all conditioning and testing was as described, except context and tone extinction were separated by 24 hours.
(§2) On the fear conditioning day, rats were exposed to four tone-shock pairings with a 60 second ITI (460 seconds total time). For context extinction, rats were returned to the conditioning context for 12 minutes total. For tone extinction, rats were exposed to twelve tones (10 seconds, 85 dB) for 960 seconds total. Conditioning, context and tone extinction sessions were separated by 24 hours.
Infrared cameras (frame rate: 30 Hz) and VideoFreeze software (MedAssociates; St Albans, Vt.) were used to record behavior during all training and testing sessions. […]

Long Evans rats [2] = assay: auditory fear conditioning after chronic immobilization stress or handling; format: in vivo, rat; details: FIG. 4F
Experimental: as §1, §2
Infrared cameras (frame rate: 30 Hz) and VideoFreeze software (MedAssociates; St Albans, Vt.) were used to record behavior during all training and testing sessions. Motor activity was measured using the “motion index”, a number generated by the VideoFreeze software, which corresponds roughly to the change in grayscale values across the image pixels; a higher motion index indicates greater movement. Freezing was measured by computing the number of observations below a threshold motion index and converting this number to a percentage of all observations for the period of interest. The threshold defined the value of the motion index below which only motor activity related to breathing was observed. […]
To determine whether the decrease in ghrelin binding sites in the BLA of chronically stressed rats exerts a functional impact, rats received either chronic immobilization stress or handling for two weeks followed by auditory fear conditioning (FIG. 4E). IBU, at the dose shown to reduce fear memory strength in unstressed rats (FIGS. 3A-D), or VEH was injected immediately after conditioning and long-term auditory fear memory was assessed two days later. […]

[3] = in vivo; cited from earlier work
Long Evans rats [4] = assay: food consumption assay and body weight after IBU; format: in vivo, rat
Experimental: as §1
For some rats, food consumption was monitored. After fear conditioning as described above, each rat was returned to its home cage in a holding room. Each rat had 200 g of chow placed in the food hopper. Food was quickly weighed and returned 30 minutes, 1 hour, 2 hours, and 3 hours after fear conditioning ended. Three days after fear recall testing (five days after fear conditioning), food consumption was measured during the same time points within the day, but while the rats were undisturbed in their home cages in the vivarium.
To assess fear memory strength, conditional freezing was expressed as the percentage of time spent freezing, a probability estimate amenable to analysis with parametric statistics. These estimates of freezing, as well as hormone levels and data related to food consumption and body weight, were analyzed using ANOVA. Post hoc Fisher's PLSD tests were performed after a significant omnibus F-ratio.

[5] = intra-BLA infusion (0.5 μg/μl) prior to fear conditioning, FIG. 3B
[6] = systemic (i.p., 0.5 mg/ml) prior to fear conditioning, vs vehicle, FIG. 3A
[7] = systemic, 0.5 mg/mL, following fear conditioning, FIG. 7A

Compound: CC(C)(N)C(=O)N[C@H](COCc1ccccc1)C(=O)N1CCC2(CC1)CN(S(C)(=O)=O)c1ccccc12 [IBU, ibutamoren mesylate]
- fear acquisition (Long Evans rats [1]; [5]): without any effect; also recorded: without affecting
- long-term auditory fear memory (Long Evans rats [1]; [5]): strongly inhibited; also recorded: significantly impaired
- long-term contextual memory (Long Evans rats [1]; [5]): strongly inhibited; also recorded: significantly impaired
- fear acquisition (Long Evans rats [1]; [6]): without impacting; also recorded: without affecting
- long-term contextual memory (Long Evans rats [1]; [6]): without impacting; also recorded: without affecting
- long-term auditory fear memory (Long Evans rats [1]; systemic (i.p., 1 ml/kg of 0.5 mg/ml) 30 minutes prior to fear conditioning, vs vehicle, FIG. 3A): significantly lower levels; also recorded: significantly impaired
- fear acquisition (Long Evans rats [1]; [7]): without any effect; also recorded: without affecting
- long-term auditory fear memory (Long Evans rats [1]; [7]): strongly inhibited; also recorded: significantly impaired
- long-term contextual fear memory (Long Evans rats [1]; [7]): strongly inhibited; also recorded: significantly impaired
- long-term auditory fear memory (conditional freezing) (Long Evans rats [2]; rats exposed to chronic immobilization stress (14 days), systemic IBU): no effect and not
- freezing during fear conditioning (group differences) (Long Evans rats [2]; stressed and unstressed rats, IBU or VEH): No group differences
- long-term auditory fear memory (Long Evans rats [2]; unstressed (handled) rats, systemic IBU): reduced; also recorded: significantly impaired
- crossing of the blood-brain barrier [3]: readily crosses
- half-life [3]: > 6 h
- body weight measured 24 hours after injection (Long Evans rats [4]; intra-BLA infusion, FIG. 3D): does not change
- body weight (Long Evans rats [4]; systemic, 0.5 mg/mL, IBU vs vehicle group, FIG. 3C right panel): did not differ
- food consumption shortly following injection (Long Evans rats [4]; systemic, 0.5 mg/mL, relative to body weight, FIG. 3C left panel): does not impact
- food consumption cumulatively, over the 24 hours following injection (Long Evans rats [4]; systemic, 0.5 mg/mL, relative to body weight, FIG. 3C middle panel): does not impact
- food consumption shortly following injection (Long Evans rats [4]; systemic, 10 mg/mL (twenty times the dose), FIG. 7B left panel): does not impact
- food consumption cumulatively, over the 24 h following injection (Long Evans rats [4]; systemic, 10 mg/mL (twenty times the dose), FIG. 7B middle panel): does not impact
